The test system of series [1] is panel of four people. Nature of the series: Sensory test of Maillard reaction series in glycerol, buffer or dry conditions (Examples 50, 52). The series is classed as in vivo. Further details: key to Intensity of Smell: “+” for slight; “++” for moderate; “+++” for very strong. On the procedure:
The reaction partner (amino acid, carbohydrate source) were dissolved/suspended in the reaction solvent and transferred into a glass beaker filled with sand pre-heated for at least 30 minutes at the reaction temperature in a drying oven. After the planned reaction time, the vials were transferred into ice water. After cooling to room temperature, sensory analysis and analytical characterization was performed.
All tests were performed with negative controls (only reaction solvent, reaction solvent and amino acid, reaction solvent and carbohydrate).
Another series of experiments was performed in […] filled with 10 ml of reaction solvent. The reaction partner (amino acid, carbohydrate source) were dissolved/suspended in the reaction solvent and reflux heated for the time given on heating plates. After the planned reaction time, the flasks were transferred into ice water. After cooling to room temperature, sensory analysis and analytical characterization was performed.
Another series of experiments was performed in 20 ml sealed Pyrex vials. The reaction partner (amino acid, carbohydrate source) were finely grinded and mixed, then transferred in the Pyrex vial. A small volume of water was added and the reaction initiated in a drying oven. After the planned reaction time, the vials were transferred into ice water. After cooling to room temperature, sensory analysis and analytical characterization was performed.
For evaluation of the taste profile, the samples were tested by a panel of four people. 1 trained taster tasted independently the samples first. The taster was asked to describe the taste profile and score 0-5 according to the increasing sugar likeness, bitterness, aftertaste and lingering taste profiles. The first taster was allowed to re-taste, and then make notes for the sensory attributes perceived. Afterwards, another 3 tasters tasted and the attributes were noted and discussed openly to find a suitable description. In case that more than 1 taster disagreed with the results, the tasting was repeated. In some sensory test results (above), the taste rating was expressed by “+”, which means the intensity of the factors is shown by three levels. “+” for slight, “++” for moderate and “+++” for very strong.

Series [2] in a line: Sensory evaluation of GSGs and SGs, thaumatin, NHDC and combinations in water (Example 255). The note with it: combinations of EPCalin and NHDC in water, concentrations as in the sample name. On the procedure: 4.5 ppm Thaumatin (equivalent to 10 ppm EPCalin) was dissolved in water. Increasing amounts of NHDC (1-5 ppm) were added to the solution and the sensory properties were evaluated.
50 ppm (GSGs and SGs) were dissolved in water. Increasing amounts of NHDC (1-5 ppm) were added to the solution and the sensory properties were evaluated.
50 ppm (GSGs and SGs) and 4.5 ppm Thaumatin (equivalent to 10 ppm EPCalin) were dissolved in water. Increasing amounts of NHDC (1-5 ppm) were added to the solution and the sensory properties were evaluated.

A short description of series [3]: Assay to test reducing power (iron-III reduction), Example 64. The format is biochemical. The conditions noted are these: 100° C., 0-5.0 h, pH 7.8; compared with glucose or xylose.
A short description of series [4]: Kinetics of reaction of Phe with Reb-A, Gluc, Xyl, Suc in dependence of pH-conditions, HPLC/MS (Example 55). The format is physicochemical. The note with it: reaction of Phe and Reb-A. On the procedure:
Quantitative evaluation was performed using external standardization.
Kinetics of Reaction in dependence of pH-conditions

The nature of series [5]: Assay to test DPPH radical-scavenging activity, Example 65. The format is biochemical. The conditions noted are these: 100° C., 0-5.0 h, pH 7.8; compared with glucose or xylose. The protocol:
1 mg 1,1-Diphenyl-2-picrylhydrazyl radical (DPPH)/ml ethanol, dilution to assay concentration were prepared in ethanol (40 μg/mL); Calibration samples were prepared with Ascorbic acid in a concentration of 0-10 μg/mL; as a negative control sample, water was used.
Samples in aqueous solution were used as such or diluted with water.
A 0.1 ml sample (or calibration standard) was mixed with 3.9 ml solution of DPPH (100 μMolar) and reacted while protected from light at room temperature for 30 min. Absorbance was determined at 517 nm against ethanol.
10 mM of amino acid and/or 10 mM sugar were dissolved in 10 ml 0.1 mM KH2PO4-buffer, pH=7.8.
The samples were kept at 100° C. in sealed glass vials (Pyrex 15 ml with screw caps) for 0 (before reaction), 2.5 or 5.0 hours. Thereafter the samples were transferred to an ice water bath and cooled down to room temperature. These samples were diluted 1:10 and used for the test assay for anti-oxidant potential.
In general terms: Loss of DPPH colour is used to gauge radical scavenging.

[6] abbreviates: Table 52.2, 1 ml water + 9 ml Glycerin, 0.67 h, 100° C. (Table 50.2).
The mark [7] stands for this setting: Table 52.6, Glycerin, 10 ml, 100° C., 40 min (Table 50.6).
Setting [8] is: Table 52.7, Glycerin, 10 ml, 1 h, 120° C. (Table 50.7).
Where [9] appears, read: Table 52.3, 1 ml water + 9 ml Glycerin, 0.67 h, 100° C. (Table 50.3).
Where [10] appears, read: Table 52.1, 1 ml water + 9 ml Glycerin, 1 h, 100° C. (Table 50.1).
[11] abbreviates: Table 52.5, 1 ml water + 9 ml Glycerin, 2.0 h, 120° C. (Table 50.5).

The record followed here is patent US11266170B2, “Sweetener and flavor compositions, methods of making and methods of use thereof” (EPC Natural Products Co., Ltd., priority 2018, dated 2022).

SMILES strings stand for the structures.

With `C=C1C[C@@]23CC[C@H]4[C@@](C)(CCC[C@@]4(C)C(=O)O[C@@H]4O[C@H](CO)[C@@H](O)[C@H](O)[C@H]4O)[C@@H]2CC[C@]1(O[C@@H]1O[C@H](CO)[C@@H](O)[C@H](O[C@@H]2O[C@H](CO)[C@@H](O)[C@H](O)[C@H]2O)[C@H]1O[C@@H]1O[C@H](CO)[C@@H](O)[C@H](O)[C@H]1O)C3` [0.05 mMol Reb-A], in series [1] (setting [6]), the Smell result is on record as “neutral/unpleasant” and the Taste result is recorded as “sweet”.

With `OC[C@H]1OC(O)[C@H](O)[C@@H](O)[C@@H]1O` (stereo partly drawn) [10 mMol Glu], the Smell result in series [1] (setting [7]) and in series [1] (setting [8]) was “Slightly Caramel” in each case.

Take `C[C@H](N)C(=O)O` [0.1 mMol Ala]: in series [1] (setting [6]), the Smell result is given as “Agar” and the Taste result is “sweet”.

Consider `COc1ccc(CCC(=O)c2c(O)cc(O[C@@H]3O[C@H](CO)[C@@H](O)[C@H](O)[C@H]3O[C@@H]3O[C@@H](C)[C@H](O)[C@@H](O)[C@H]3O)cc2O)cc1O` [10 ppm NHDC], for which the Sensory evaluation entry in series [2] was “Sweet, steep onset of sweetness, no lingering”.

On to `N[C@@H](Cc1ccccc1)C(=O)O` [3.3 mMol Phe], for which the Smell entry in series [1] (Table 52.6, Glycerin, 10 ml, 100° C., 5 min (Table 50.6)) is “Slightly bloomy”; in series [1] (Table 52.6, Glycerin, 10 ml, 100° C., 10 min (Table 50.6)) it was “flowery/bloomy”; in series [1] (Table 52.6, Glycerin, 10 ml, 100° C., 20 min (Table 50.6)) it was “flowery/bloomy”; in series [1] (setting [7]), “flowery/bloomy”; in series [1] (setting [8]), “flowery/bloomy”.

With `NCCCC[C@H](N)C(=O)O` [0.1 mMol Lys], in series [1] (setting [9]), the Smell result was “Popcorn” and the Taste entry is “Sweet”.

Regarding `N[C@@H](CCC(=O)O)C(=O)O` [167 mMol Glu], in series [1] (setting [10]), the Smell entry is given as “caramel” and the Taste entry is “Sweet”.

Turning to `C=C1C[C@@]23CC[C@H]4[C@@](C)(CCC[C@@]4(C)C(=O)O[C@@H]4O[C@H](CO)[C@@H](O)[C@H](O)[C@H]4O)[C@@H]2CC[C@]1(O[C@@H]1O[C@H](CO)[C@@H](O)[C@H](O[C@@H]2O[C@H](CO)[C@@H](O)[C@H](O)[C@H]2O)[C@H]1O[C@@H]1O[C@H](CO)[C@@H](O)[C@H](O)[C@H]1O)C3` [Reb-A, Rebaudioside A, reference compound], in series [3], the “active iron-III reduction (anti-oxidant properties)” value is on record as “substantial anti-oxidant properties”. Moreover, the “% degradation” value was 8.25% in series [4] (pH = 5.5), 10.1% in series [4] (pH = 7.0) and 12.6% in series [4] (pH = 8.5). Also, in series [5], the “radical scavenging properties (anti-oxidant properties)” value is recorded as “substantial anti-oxidant properties”.

With `N[C@@H](Cc1ccccc1)C(=O)O` [Phe 60 mMol], in series [1] (setting [10]), the Smell result is “flowery/bloomy-caramel” and the Taste entry is given as “Sweet”.

Turning to `N[C@@H](Cc1ccccc1)C(=O)O` [0.1 mMol Phe], in series [1] (setting [6]), the Taste entry was “sweet”. Moreover, in series [1] (setting [11]), the “Intensity of Smell” value is given as “+”; the Smell result is reported as “Caramel, burnt”; the Taste result is reported as “sweet”.

Take `O=C[C@H](O)[C@H]1OC(=O)[C@@H](O)[C@H]1O` [0.1 mMol GlucLac]: in series [1] (setting [11]), the “Intensity of Smell” value is “+++”, the Smell result was “Burnt sugar” and the Taste result is recorded as “Bitter”.
